In ChEMBL document CHEMBL5291721, “A preclinical secondary pharmacology resource illuminates target-adverse drug reaction associations of marketed drugs” (Nat Commun, 2023) one finds AC50 data, which are given here for 2 compounds.

Structures are written as SMILES. Some results are limits rather than exact numbers.

Assay [1] deals with T1, Amine oxidase [flavin-containing] A (Homo sapiens, UniProt P21397).
T1 sequence (P21397 whole entry): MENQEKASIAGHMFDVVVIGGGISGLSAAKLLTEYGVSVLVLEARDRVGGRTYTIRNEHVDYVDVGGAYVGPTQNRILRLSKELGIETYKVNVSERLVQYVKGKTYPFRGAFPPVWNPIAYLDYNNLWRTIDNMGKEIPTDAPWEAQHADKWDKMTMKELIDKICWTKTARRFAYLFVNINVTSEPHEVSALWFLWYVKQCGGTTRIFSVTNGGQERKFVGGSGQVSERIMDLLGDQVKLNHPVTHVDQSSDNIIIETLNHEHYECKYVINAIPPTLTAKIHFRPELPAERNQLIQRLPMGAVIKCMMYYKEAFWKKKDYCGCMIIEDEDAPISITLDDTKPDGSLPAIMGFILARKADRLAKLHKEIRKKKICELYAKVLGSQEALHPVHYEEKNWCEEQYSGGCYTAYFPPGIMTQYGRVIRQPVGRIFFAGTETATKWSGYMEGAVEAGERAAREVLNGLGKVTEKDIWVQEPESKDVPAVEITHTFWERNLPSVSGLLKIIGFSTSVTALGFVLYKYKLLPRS
In kind it is functional.

In assay [2] the target is Sodium-dependent serotonin transporter (Homo sapiens, UniProt P31645).
For a further assay, the target named is T2, Thromboxane A2 receptor (Homo sapiens, UniProt P21731).
T2 sequence (P21731 whole entry): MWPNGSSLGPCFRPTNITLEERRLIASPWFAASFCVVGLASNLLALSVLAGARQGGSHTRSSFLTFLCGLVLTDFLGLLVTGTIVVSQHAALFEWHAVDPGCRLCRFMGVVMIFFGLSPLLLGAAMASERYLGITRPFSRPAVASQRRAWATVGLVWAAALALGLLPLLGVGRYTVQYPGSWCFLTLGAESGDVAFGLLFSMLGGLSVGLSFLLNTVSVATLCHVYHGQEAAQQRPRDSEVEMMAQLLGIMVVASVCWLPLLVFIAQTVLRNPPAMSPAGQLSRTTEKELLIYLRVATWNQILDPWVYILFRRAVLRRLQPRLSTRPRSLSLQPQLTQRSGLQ
In kind it is functional, cell-based.

Another assay deals with Acetylcholinesterase (Homo sapiens, UniProt P22303). The format is functional.
For assay [3], the target named is Sodium-dependent dopamine transporter (Homo sapiens, UniProt Q01959).
Assay [4] deals with Prostaglandin G/H synthase 1 (Homo sapiens, UniProt P23219). The format is functional.
In assay [5] the target is cGMP-inhibited 3',5'-cyclic phosphodiesterase 3A (Homo sapiens, UniProt Q14432). In kind it is functional.
Assay [6] addresses Sodium-dependent noradrenaline transporter (Homo sapiens, UniProt P23975).
The next assay addresses D(3) dopamine receptor (Homo sapiens, UniProt P35462).
In assay [7] the target is T3, 5-hydroxytryptamine receptor 1A (Homo sapiens, UniProt P08908).
T3 sequence (P08908 whole entry): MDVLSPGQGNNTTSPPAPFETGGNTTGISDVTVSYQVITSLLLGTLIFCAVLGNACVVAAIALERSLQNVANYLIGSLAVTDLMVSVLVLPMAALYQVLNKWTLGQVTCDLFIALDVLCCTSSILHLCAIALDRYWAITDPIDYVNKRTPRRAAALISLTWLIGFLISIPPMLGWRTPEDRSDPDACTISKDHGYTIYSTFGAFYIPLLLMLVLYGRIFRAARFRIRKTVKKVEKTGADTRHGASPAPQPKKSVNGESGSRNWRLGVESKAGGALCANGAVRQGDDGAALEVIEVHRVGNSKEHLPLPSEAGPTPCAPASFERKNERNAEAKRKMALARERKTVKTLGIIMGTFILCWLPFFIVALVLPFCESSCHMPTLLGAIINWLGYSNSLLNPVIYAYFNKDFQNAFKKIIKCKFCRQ

Assay [8] has as its target Voltage-gated inwardly rectifying potassium channel KCNH2 (Homo sapiens, UniProt Q12809). In kind it is functional. The settings on record: read-out: AC50.
Another assay addresses T4, Estrogen receptor (Homo sapiens, UniProt P03372).
T4 sequence (P03372 whole entry): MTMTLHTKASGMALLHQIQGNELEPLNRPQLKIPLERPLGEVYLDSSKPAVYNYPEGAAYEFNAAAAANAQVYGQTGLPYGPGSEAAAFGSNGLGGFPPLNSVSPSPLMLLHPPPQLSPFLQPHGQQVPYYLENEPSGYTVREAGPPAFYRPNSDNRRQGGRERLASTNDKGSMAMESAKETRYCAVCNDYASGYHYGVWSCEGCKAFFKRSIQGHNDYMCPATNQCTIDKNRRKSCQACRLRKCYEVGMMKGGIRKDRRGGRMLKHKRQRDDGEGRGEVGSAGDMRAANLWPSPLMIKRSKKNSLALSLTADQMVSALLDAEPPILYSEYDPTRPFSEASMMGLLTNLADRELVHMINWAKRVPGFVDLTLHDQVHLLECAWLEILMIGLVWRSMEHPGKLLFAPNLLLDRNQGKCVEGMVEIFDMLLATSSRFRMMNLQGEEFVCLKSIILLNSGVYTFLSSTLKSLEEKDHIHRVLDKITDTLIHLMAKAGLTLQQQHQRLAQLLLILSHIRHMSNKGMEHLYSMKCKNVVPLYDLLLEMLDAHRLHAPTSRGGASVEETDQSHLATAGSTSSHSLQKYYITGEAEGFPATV

A further assay deals with Prothrombin (Homo sapiens, UniProt P00734). In kind it is functional.
Assay [9] concerns the target Vascular endothelial growth factor receptor 2 (Homo sapiens, UniProt P35968). In kind it is functional.
Another assay addresses T5, Adenosine receptor A3 (Homo sapiens, UniProt P0DMS8).
T5 sequence (P0DMS8 whole entry): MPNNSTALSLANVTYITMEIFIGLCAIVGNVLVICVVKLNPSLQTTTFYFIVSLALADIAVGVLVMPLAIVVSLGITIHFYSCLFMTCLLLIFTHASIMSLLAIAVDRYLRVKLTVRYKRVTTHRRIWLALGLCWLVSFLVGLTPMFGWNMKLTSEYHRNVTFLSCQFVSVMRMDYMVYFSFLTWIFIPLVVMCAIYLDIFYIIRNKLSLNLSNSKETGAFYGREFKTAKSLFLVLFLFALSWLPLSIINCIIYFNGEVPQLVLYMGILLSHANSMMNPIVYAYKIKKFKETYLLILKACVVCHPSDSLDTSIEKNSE

The target of assay [10] is 5-hydroxytryptamine receptor 2B (Homo sapiens, UniProt P41595). In kind it is functional, cell-based.
Note: assay procedure not described here.

Sequence of Prostaglandin G/H synthase 1 (P23219 whole entry): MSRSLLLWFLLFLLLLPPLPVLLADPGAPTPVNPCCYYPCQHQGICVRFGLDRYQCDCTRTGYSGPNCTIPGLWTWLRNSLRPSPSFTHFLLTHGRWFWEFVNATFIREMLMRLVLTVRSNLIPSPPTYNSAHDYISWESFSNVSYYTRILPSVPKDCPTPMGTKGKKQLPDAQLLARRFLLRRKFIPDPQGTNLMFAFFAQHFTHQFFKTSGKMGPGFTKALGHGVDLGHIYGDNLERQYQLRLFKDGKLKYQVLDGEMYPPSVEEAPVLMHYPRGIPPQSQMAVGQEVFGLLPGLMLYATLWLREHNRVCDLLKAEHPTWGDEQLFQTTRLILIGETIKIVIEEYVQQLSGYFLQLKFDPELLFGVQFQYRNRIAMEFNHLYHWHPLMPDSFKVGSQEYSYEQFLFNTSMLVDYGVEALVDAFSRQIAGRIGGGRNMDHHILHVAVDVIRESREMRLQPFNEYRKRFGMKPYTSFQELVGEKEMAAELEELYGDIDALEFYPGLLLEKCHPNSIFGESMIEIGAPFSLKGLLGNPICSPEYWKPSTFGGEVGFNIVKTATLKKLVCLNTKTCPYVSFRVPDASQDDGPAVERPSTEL
Sequence of Acetylcholinesterase (P22303 whole entry): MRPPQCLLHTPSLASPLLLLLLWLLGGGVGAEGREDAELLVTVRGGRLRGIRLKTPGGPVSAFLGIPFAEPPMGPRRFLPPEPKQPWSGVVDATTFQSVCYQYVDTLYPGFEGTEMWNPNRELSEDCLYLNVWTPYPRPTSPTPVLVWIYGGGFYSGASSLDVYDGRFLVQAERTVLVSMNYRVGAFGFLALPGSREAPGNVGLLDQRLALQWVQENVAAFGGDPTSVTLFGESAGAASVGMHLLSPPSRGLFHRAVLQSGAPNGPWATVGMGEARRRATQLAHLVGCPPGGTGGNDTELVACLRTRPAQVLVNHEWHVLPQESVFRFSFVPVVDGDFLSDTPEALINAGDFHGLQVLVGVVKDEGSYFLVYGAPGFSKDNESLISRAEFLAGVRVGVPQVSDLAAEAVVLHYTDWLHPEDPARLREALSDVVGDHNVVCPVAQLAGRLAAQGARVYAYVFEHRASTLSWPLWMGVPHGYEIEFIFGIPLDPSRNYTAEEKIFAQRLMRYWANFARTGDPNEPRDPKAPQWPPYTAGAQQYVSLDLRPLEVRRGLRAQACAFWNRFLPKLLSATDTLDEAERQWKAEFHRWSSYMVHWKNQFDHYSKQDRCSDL
Sequence of Vascular endothelial growth factor receptor 2 (P35968 whole entry): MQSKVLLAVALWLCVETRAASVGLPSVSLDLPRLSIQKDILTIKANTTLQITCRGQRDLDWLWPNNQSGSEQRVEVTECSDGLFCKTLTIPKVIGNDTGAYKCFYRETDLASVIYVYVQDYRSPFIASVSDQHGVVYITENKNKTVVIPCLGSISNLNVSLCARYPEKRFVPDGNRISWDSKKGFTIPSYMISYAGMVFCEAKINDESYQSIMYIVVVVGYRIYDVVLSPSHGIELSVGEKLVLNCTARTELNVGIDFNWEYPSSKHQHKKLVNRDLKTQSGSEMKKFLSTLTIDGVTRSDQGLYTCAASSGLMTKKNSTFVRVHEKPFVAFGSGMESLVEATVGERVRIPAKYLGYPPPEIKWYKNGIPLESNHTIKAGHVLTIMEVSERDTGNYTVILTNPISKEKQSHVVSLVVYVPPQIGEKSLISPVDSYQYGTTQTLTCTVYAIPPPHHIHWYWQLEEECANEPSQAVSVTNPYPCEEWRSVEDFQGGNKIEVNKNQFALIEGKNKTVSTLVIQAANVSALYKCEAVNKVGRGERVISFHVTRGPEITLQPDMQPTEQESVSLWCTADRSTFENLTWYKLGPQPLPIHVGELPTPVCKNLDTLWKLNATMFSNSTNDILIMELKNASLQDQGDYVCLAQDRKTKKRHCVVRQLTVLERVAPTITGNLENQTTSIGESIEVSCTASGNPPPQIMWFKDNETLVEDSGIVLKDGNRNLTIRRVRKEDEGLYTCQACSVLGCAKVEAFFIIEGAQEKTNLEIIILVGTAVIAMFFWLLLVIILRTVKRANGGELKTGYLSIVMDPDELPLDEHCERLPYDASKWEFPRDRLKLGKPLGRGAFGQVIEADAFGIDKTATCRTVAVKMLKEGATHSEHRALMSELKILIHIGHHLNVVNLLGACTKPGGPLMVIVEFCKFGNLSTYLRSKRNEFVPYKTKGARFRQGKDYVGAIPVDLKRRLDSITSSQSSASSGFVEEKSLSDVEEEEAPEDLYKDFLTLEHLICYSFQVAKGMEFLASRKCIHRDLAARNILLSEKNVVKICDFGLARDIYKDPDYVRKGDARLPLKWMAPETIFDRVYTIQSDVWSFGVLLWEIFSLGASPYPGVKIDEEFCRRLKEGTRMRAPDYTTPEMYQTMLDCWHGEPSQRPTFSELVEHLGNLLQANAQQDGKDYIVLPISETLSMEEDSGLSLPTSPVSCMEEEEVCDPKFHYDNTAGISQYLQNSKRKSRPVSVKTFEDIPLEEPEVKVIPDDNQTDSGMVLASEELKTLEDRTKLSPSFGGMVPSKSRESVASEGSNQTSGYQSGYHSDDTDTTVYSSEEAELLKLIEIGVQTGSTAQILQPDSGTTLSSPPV
Sequence of Voltage-gated inwardly rectifying potassium channel KCNH2 (Q12809 whole entry): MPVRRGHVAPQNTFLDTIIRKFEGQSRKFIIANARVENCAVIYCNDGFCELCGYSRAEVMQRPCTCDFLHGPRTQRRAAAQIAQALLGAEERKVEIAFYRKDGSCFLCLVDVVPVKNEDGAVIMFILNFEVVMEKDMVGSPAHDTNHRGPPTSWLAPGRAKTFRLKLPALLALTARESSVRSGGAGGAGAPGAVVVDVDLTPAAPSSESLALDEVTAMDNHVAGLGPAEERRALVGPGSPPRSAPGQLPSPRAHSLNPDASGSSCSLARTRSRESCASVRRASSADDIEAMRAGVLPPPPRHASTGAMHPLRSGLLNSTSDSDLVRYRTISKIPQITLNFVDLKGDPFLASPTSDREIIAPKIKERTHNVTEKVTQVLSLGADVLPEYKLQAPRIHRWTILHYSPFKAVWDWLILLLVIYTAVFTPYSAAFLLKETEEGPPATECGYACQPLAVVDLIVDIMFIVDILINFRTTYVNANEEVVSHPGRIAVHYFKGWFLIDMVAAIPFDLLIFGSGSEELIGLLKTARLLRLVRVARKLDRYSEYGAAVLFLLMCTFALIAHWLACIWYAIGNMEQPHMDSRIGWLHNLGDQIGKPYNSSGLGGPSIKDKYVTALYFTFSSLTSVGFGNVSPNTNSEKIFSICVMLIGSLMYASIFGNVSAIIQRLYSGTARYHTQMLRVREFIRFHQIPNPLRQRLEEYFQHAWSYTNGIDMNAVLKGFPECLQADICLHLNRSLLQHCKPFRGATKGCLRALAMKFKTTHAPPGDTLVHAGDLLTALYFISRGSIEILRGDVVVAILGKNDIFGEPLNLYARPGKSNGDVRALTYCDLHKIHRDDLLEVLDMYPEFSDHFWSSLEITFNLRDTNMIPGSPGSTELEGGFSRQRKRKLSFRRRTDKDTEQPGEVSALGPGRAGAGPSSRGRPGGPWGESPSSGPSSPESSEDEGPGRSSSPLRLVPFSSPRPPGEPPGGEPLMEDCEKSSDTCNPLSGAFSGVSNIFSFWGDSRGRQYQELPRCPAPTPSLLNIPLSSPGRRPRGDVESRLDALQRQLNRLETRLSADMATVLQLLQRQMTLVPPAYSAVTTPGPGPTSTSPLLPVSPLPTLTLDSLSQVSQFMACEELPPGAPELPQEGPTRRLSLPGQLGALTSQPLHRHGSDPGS
Sequence of D(3) dopamine receptor (P35462 whole entry): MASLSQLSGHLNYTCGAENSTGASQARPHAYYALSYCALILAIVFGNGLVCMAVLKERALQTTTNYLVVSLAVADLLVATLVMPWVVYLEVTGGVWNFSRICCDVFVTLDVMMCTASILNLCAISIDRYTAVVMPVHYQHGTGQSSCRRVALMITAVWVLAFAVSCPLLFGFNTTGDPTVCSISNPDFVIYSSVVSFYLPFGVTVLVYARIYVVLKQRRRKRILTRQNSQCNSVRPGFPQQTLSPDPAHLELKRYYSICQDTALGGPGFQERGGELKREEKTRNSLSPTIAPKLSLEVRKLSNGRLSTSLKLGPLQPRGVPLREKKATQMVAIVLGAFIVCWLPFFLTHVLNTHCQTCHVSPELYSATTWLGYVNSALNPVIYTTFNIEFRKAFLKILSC
Sequence of Sodium-dependent noradrenaline transporter (P23975 whole entry): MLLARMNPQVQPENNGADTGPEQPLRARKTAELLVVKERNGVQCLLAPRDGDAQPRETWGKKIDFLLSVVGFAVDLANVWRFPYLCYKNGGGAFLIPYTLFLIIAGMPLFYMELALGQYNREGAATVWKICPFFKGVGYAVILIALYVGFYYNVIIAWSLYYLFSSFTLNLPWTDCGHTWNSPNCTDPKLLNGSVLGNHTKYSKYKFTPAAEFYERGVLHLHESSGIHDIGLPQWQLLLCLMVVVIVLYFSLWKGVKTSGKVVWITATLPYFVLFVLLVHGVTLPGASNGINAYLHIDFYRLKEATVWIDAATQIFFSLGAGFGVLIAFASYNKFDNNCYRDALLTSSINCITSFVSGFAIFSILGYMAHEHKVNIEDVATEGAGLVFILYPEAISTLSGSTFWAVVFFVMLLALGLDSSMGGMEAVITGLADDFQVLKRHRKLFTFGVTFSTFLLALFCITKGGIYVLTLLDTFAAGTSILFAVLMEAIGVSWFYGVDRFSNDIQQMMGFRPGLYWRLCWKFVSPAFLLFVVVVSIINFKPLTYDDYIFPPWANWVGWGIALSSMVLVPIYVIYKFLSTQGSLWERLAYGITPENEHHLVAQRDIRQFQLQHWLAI

As for `COC(=O)N(C)c1c(N)nc(-c2nn(Cc3ccccc3F)c3ncccc23)nc1N` [RIOCIGUAT], the concentration at half-maximal activity (AC50) (in assay [1]; in assay [2]; at Thromboxane A2 receptor; at Acetylcholinesterase; in assay [3]; in assay [4]) was greater than 30 µM each time. Further, the AC50 (commonly the midpoint of the concentration-response curve, whichever way the signal moves) in assay [5] is greater than 30 µM; in assay [6], greater than 30 µM; at D(3) dopamine receptor it was greater than 30 µM; in [7] it was greater than 30 µM; in assay [8] it was 5 µM; on Estrogen receptor it was greater than 30 µM. Besides, the AC50 on Prothrombin was greater than 30 µM; in assay [9] it was greater than 30 µM; on Adenosine receptor A3, 13.9 µM; in [10], greater than 30 µM.

`[H]/N=C(/N)NS(=O)(=O)c1ccc(N)cc1` [SULFAGUANIDINE]: the AC50 (in assay [1]; in assay [2]; on Thromboxane A2 receptor; at Acetylcholinesterase; in assay [3]; in [4]) was greater than 30 µM throughout. In addition, the AC50 (in assay [5]; in [6]; at D(3) dopamine receptor; in assay [7]; in assay [8]; on Estrogen receptor) was greater than 30 µM in each case. Moreover, the AC50 (at Prothrombin; in assay [9]; at Adenosine receptor A3; in [10]) was greater than 30 µM in each case.
